Patent publication US20080261977A1, “Pyrimidine Derivatives as Cannabinoid Receptor Modulators” (priority 2004, published 2008)
pEC50: −log10 of the molar value. Counter-ions that a name gives are not always drawn. Like-named read-outs stand apart in the source and are kept apart here.

Biological target: T1, human cannabinoid CB2 receptor (Homo sapiens, UniProt P34972)
T1 construct: expressed in transfected cells; host or cells: Saccharomyces cerevisiae strain MMY23 (cassette integrated at the ura3 locus; chimeric Gpa1/Gαi3)
T1 sequence (P34972 whole entry): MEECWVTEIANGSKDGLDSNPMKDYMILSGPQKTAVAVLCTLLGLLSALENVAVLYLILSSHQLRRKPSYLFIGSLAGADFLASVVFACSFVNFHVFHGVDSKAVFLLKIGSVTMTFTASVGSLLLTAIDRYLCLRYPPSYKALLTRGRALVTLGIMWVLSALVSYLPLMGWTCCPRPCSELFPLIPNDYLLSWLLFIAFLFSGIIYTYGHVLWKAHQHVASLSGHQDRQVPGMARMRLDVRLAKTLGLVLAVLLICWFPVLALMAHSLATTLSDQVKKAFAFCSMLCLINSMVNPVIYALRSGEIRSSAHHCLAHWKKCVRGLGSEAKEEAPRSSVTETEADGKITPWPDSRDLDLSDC
Assay: Cannabinoid CB2 receptor agonist activity, yeast (Saccharomyces cerevisiae) cells expressing the receptor, FDGlu fluorescence
Type: cell-based
Details: for Emax: read-out: efficacy (Emax relative to HU210) at the cloned human cannabinoid CB2 receptor
Description: The cannabinoid CB2 receptor agonist activity of the compounds of formula (I) was determined in accordance with the following experimental method.
Yeast (Saccharomyces cerevisiae) cells expressing the human cannabinoid CB2 receptor were generated by integration of an expression cassette into the ura3 chromosomal locus of yeast strain MMY23. This cassette consisted of DNA sequence encoding the human CB2 receptor flanked by the yeast GPD promoter to the 5′ end of CB2 and a yeast transcriptional terminator sequence to the 3′ end of CB2. MMY23 expresses a yeast/mammalian chimeric G-protein alpha subunit in which the C-terminal 5 amino acids of Gpa1 are replaced with the C-terminal 5 amino acids of human Gαi3 (as described in Brown et al. (2000), Yeast 16:11-22). Cells were grown at 30° C. in liquid Synthetic Complete (SC) yeast media (Guthrie and Fink (1991), Methods in Enzymology, Vol. 194) lacking uracil, tryptophan, adenine and leucine to late logarithmic phase (approximately 6 OD600/ml).
Agonists were prepared as 10 mM stocks in DMSO. EC50 values (the concentration required to produce 50% maximal response) were estimated using dilutions of between 3- and 5-fold (BiomekFX, Beckman) into DMSO. Agonist solutions in DMSO (1% final assay volume) were transferred into black, clear bottom, microtitre plates from NUNC (96- or 384-well). Cells were suspended at a density of 0.2 OD600/ml in SC media lacking histidine, uracil, tryptophan, adenine and leucine and supplemented with 10 mM 3-aminotriazole, 0.1M sodium phosphate pH 7.0, and […] fluorescein di-β-D-glucopyranoside (FDGlu). This mixture (50 ul per well for 384-well plates, 200 ul per well for 96-well plates) was added to agonist in the assay plates (Multidrop 384, Labsystems). After incubation at 30° C. for 24 hours, fluorescence resulting from degradation of FDGlu to fluorescein due to exoglucanase, an endogenous yeast enzyme produced during agonist-stimulated cell growth, was determined using a Spectrofluor microtitre plate reader (Tecan; excitation wavelength: 485 nm; emission wavelength: 535 nm). Fluorescence was plotted against compound concentration and iteratively curve fitted using a four parameter fit to generate a concentration effect value. Efficacy (Emax) was calculated from the equation
Emax=Max[compound X]−Min[compound X]/Max[HU210]−Min[HU210]×100%
where Max[compound X] and Min[compound X] are the fitted maximum and minimum respectively from the concentration effect curve for compound X, and Max[HU210] and Min[HU210] are the fitted maximum and minimum respectively from the concentration effect curve for (6aR,10aR)-3-1,1′-Dimethylheptyl)-6a,7,10,10a-tetrahydro-1-hydroxy-6,6-dimethyl-6H-dibenzo[b,d]pyran-9-methanol (HU210; available from Tocris). Equieffective molar ratio (EMR) values were calculated from the equation
Where EC50[compound X] is the EC50 of compound X and EC50[HU210] is the EC50 of HU210.

[1] = yeast agonist assay, read-out: EC50 at the cloned human cannabinoid CB2 receptor

Structure (SMILES)	Emax [%]	pEC50 [1]	Emax (yeast agonist assay) [%]	also measured
COCCN(CCOC)Cc1cnc(Nc2cccc(Cl)c2)nc1C(F)(F)F [Example 83, (5-{[Bis-(2-methoxy-ethyl)-amino]-methyl}-4-trifluoromethyl-pyrimidin-2-yl)-(3-chlorophenyl)-amine]				potency or efficacy at the CB2 receptor (in words): no appreciable potency or efficacy; potency or efficacy at the CB2 receptor (in words) (listed as (5-{[Bis-(2-methoxy-ethyl)-amino]-methyl}-4-trifluoromethyl-pyrimidin-2-yl)-(3-c)): do not appear to have any potency or efficacy
O=S1(=O)CCC(NCc2cnc(Nc3cccc(Cl)c3)nc2C(F)(F)F)CC1 [Example 26, (3-Chlorophenyl)-{5-[(1,1-dioxo-hexahydro-1l^6-thiopyran-4-ylamino)-methyl]-4-trifluoromethyl-pyrimidin-2-yl}-amine, formate]	> 50	> 6.52		
CC(C)CCNCc1cnc(Nc2cccc(F)c2)nc1C(F)(F)F [Example 55, (3-Fluorophenyl)-{5-[(3-methylbutylamino)-methyl]-4-trifluoromethyl-pyrimidin-2-yl}-amine]	> 50	6.00 to 6.52		
CC(C)CNCc1cnc(Nc2cccc(F)c2)nc1C(F)(F)F [Example 36, (3-Fluorophenyl)-{5-[(isobutylamino)-methyl]-4-trifluoromethyl-pyrimidin-2yl}-amine, formate]		> 6.52	> 50	
CN(Cc1cnc(Nc2cccc(Cl)c2)nc1C(F)(F)F)CC1CCC1 [Example 51]	> 50	6.00 to 6.52		
FC(F)(F)c1nc(Nc2cccc(Cl)c2)ncc1CNC[C@H]1CCCO1 [Example 49, (3-Chlorophenyl)-(5-{[[(2R)-tetrahydro-furan-2-ylmethyl]-amino]-methyl}-4-trifluoromethyl-pyrimidin-2-yl)-amine,formate]	> 50	6.00 to 6.52		
FC(F)(F)c1nc(Nc2cccc(Cl)c2)ncc1CNCC1CCC1 [Example 18, (3-Chlorophenyl)-{5-[(cyclobutylmethylamino)-methyl]-4-trifluoromethyl-pyrimidin-2-yl}-amine,formate]		> 6.52	> 50	
N#Cc1cccc(Nc2ncc(CNC3CC3)c(C(F)(F)F)n2)c1 [Example 58, (3-Cyanophenyl)-(5-cyclopropylaminomethyl-4-trifluoromethyl-pyrimidin-2-yl)-amine,formate]	> 50	6.00 to 6.52		
CC(C)CNCc1cnc(Nc2ccc(Cl)cc2Cl)nc1C(F)(F)F [Example 27, (2,4-Dichlorophenyl)-{5-[(isobutylamino)-methyl]-4-trifluoromethyl-pyrimidin-2yl}-amine]	> 50			pEC50: > 6.52
CC(C)CNCc1cnc(Nc2cccc(C#N)c2)nc1C(F)(F)F [Example 59, (3-Cyanophenyl)-{5-[(isobutylamino)-methyl]-4-trifluoromethyl-pyrimidin-2yl}-amine, formate]	> 50	6.00 to 6.52		
CC(NC1CC1)c1cnc(Nc2cccc(Cl)c2)nc1C(F)(F)F (stereo not shown) [Example 85]	> 50			pEC50: > 6.52
FC(F)(F)c1nc(Nc2cccc(Cl)c2)ncc1CNC1CC1 [Example 23, (3-Chlorophenyl)-(5-cyclopropylaminomethyl-4-trifluoromethyl-pyrimidin-2-yl)-amine,formate]		> 6.52	> 50	
Fc1cc(CNCc2cnc(Nc3cccc(Cl)c3)nc2C(F)(F)F)ccn1 [Example 96, (3-Chlorophenyl)-(5-{[(2-fluoropyridin-4-ylmethyl)amino]-methyl}-4-trifluoromethyl-pyrimidin-2yl}-amine, formate]	> 50	6.00 to 6.52		
FC(F)(F)c1nc(Nc2ccc(Cl)cc2Cl)ncc1CNC1CC1 [Example 30, (2,4-Dichlorophenyl)-(5-cyclopropylaminomethyl-4-trifluoromethyl-pyrimidin-2-yl)-amine]	> 50			pEC50: > 6.52
FC(F)(F)c1nc(Nc2ccc(Cl)cc2Cl)ncc1CN1CCCC1 [Example 53, (2,4-Dichlorophenyl)-(5-pyrrolidin-1-ylmethyl-4-trifluoromethyl-pyrimidin-2-yl)-amine]	> 50	6.00 to 6.52		
Fc1ccc(Nc2ncc(CNCC3CC3)c(C(F)(F)F)n2)cc1Cl [Example 13, (3-Chloro-4-fluoro-phenyl)-{5-[(cyclopropylmethyl-amino)-methyl]-4-trifluoromethyl-pyrimidin-2-yl}-amine hydrochloride]	> 50			pEC50: > 6.52
COCCNCc1cnc(Nc2cccc(Cl)c2)nc1C(C)(C)C [Example 101, (4-tert-Butyl-5-[(2-methoxy-ethylamino)-methyl]-pyrimidin-2-yl}-(3-chloro-phenyl)-aminehydrochloride]	> 50	> 6.52		
CC(C)(C)CNCc1cnc(Nc2ccc(Cl)cc2Cl)nc1C(F)(F)F [Example 32, (2,4-Dichlorophenyl)-{5-[(2,2-dimethylpropylamino)-methyl]-4-trifluoromethyl-pyrimidin-2-yl}-amine]	> 50			pEC50: > 6.52
FC(F)(F)c1nc(Nc2cccc(Cl)c2)ncc1CNCC1CCCC1 [Example 10, (3-Chlorophenyl){5-[(cyclopentylmethylamino)-methyl]-4 trifluoromethyl-pyrimidin-2-yl}-amine, formate]		> 6.52	> 50	
CC(C)c1nc(Nc2cccc(Cl)c2)ncc1CNC1CCC1 [Example 98, (3-Chloro-phenyl)-{5-[(cyclobutylamino)-methyl]-4-isopropyl-pyrimidin-2-yl}-amine hydrochloride]		> 6.52	> 50	
CC(C)c1nc(Nc2cccc(Cl)c2)ncc1CNCC1CC1 [Example 7, (3-Chloro-phenyl)-{5-[(cyclopropylmethyl-amino)-methyl]-4-isopropyl-pyrimidin-2-yl}-amine hydrochloride]		> 6.52	> 50	
Clc1cccc(Nc2ncc(CNCC3CC3)c(C3CC3)n2)c1 [Example 3, (3-Chloro-phenyl)-{4-cyclopropyl-5-[(cyclopropylmethyl-amino)-methyl]-pyrimidin-2-yl}-amineacetate]		> 6.52	> 50	
COCCNCc1cnc(Nc2cccc(Cl)c2)nc1C(C)C [Example 9, (3-Chloro-phenyl)-{4-isopropyl-5-[(2-methoxy-ethylamino)-methyl]-pyrimidin-2-yl}-amineformate]		> 6.52	> 50	
CC(NCC1CCCCC1)c1cnc(Nc2ccc(Cl)cc2Cl)nc1C(F)(F)F (stereo not shown) [Example 95, (2,4-Dichlorophenyl)-{5-[1-(cyclohexyhnethyl-amino)-ethyl]-4-trifluoromethyl-pyrimidin-2-yl}-amine]	> 50			pEC50: > 6.52
FC(F)(F)c1nc(Nc2cccc(Cl)c2)ncc1CNC1CCOCC1 [Example 16, (3-Chlorophenyl)-{5-[(tetrahydro-pyran-4-ylamino)-methyl]-4-trifluoromethyl-pyrimidin-2-yl}-amine, formate]		> 6.52	> 50	
CC(C)CNCc1cnc(Nc2cccc(Cl)c2)nc1C1CC1 [Example 5, (3-Chloro-phenyl)-[4-cyclopropyl-5-(isobutylamino-methyl)-pyrimidin-2-yl]-amine]		> 6.52	> 50	
CN(C)Cc1cnc(Nc2cccc(Cl)c2)nc1C(F)(F)F [Example 44, (3-Chlorophenyl)-(5-dimethylaminomethyl-4-trifluoromethyl-pyrimidin-2-yl)-amine, formate]	> 50	6.00 to 6.52		
CC(NCC1CC1)c1cnc(Nc2cccc(F)c2)nc1C(F)(F)F (stereo not shown) [Example 94, (3-Fluorophenyl)-{5-[1-(cyclopropylmethyl-amino)-ethyl]-4-trifluoromethyl-pyrimidin-2-yl}-amine, formate]		> 6.52	> 50	
CN(Cc1cnc(Nc2cccc(Cl)c2)nc1C(F)(F)F)CC1CCOCC1 [Example 42, (3-Chlorophenyl)-(5-{[methyl-(tetrahydro-pyran-4-ylmethyl)-amino]-methyl}-4-trifluoromethyl-pyrimidin-2-yl)-amine]	> 50	6.00 to 6.52		
